# Test system: neurons in visual cortex brain slices
# Experiment: Optical probing of cortical brain slices made more excitable by channel/receptor blockers
# Type: cell-based, mouse
# Settings: for effect on number of possible postsynaptic targets (follower cells): bath application to fura-2 AM loaded mouse cortical slice, trigger cell stimulated; for epileptiform events in imaged neurons: most or all imaged neurons show action-potential induced increases in [Ca2+]i
# Description: This method consist of (i) loading (staining) populations of neurons in brain slices with fluorescent indicators such as fura-2 AM and (ii) imaging dozens of loaded cells during whole-cell stimulation of a particular neuron (the “trigger” cell). On-line analysis is used to determine if any other neurons (the “follower” cells) show a calcium transient time-locked to the firing of the “trigger” cell. After detection, a chosen “follower” cell is patched and a similar experiment is repeated. Histological processing is carried out on the fixed specimens. A detailed explanation of the experiment and some representative results follows.
# Brain slices are made from the primary visual cortex of postnatal day (PND) 12-23 C57BL6 mice. Mice are anesthetized with Ketamine/Xylazine (120 mg/kg, 10 mg/kg respectively). Animals are decapitated and the brain is quickly removed and placed into cold ACSF (126 mM NaCl, 3 mM KCl, 26 mM NaHCO3, 1 mM NaH2PO4, 2 mM CaCl2, 2 mM MgSO4, 10 mM Dextrose, bubbled with 95% O2/5% CO2). Coronal slices, 300-400 μm thick, are cut using a vibratome (TPI) and are incubated at 35° C. for 30 minutes in a submerged slice chamber. Slices are then incubated at room temperature (˜25° C.) for up to 12 hours.
# After loading, slices are placed in a submerged recording chamber mounted on the stage of an upright microscope (BX50WI, Olympus). All experiments are done at room temperature. Fluorescent images of fura-2 loaded neurons are taken with a cCCD camera (Micromax, Princeton Instruments) equipped with a frame transfer chip (EEV 512, Kodak) or an hexagonal photodiode array with 464 pixels (PDA, Universal Imaging). To maximize the number of imaged neurons a 20×/0.5 NA water immersion objective (Olympus) is used. Image acquisition is typically 25 msec/frame and each pixel is digitized at 12 bits. Camera images are acquired, stored and analyzed using a Macintosh 7100 (Apple Computers, Cupertino, Calif.) computer and IPLab software (Signal Analytics). Signals from the photodiodes are amplified, sampled at 1.6 KHz and analyzed using Neuroplex (Universal Imaging). For imaging of the calcium transients a 380 nm excitation, a 395 nm dichroic and a 510 emission filter (Chroma) are used. Also imaged is each neuron at the isosbestic excitation of 365 nm during every experiment to assess the approximate [Ca^2+]i and therefore monitor the health of the cells. The 365 nm images are used to estimate the intracellular concentration of fura-2, using the fluorescence of the patched cell (which has a known concentration of fura-2) as a calibration. For most neurons, after correcting for background fluorescence and focus, an intracellular concentration of indicator of approximately 40-50 μM was estimated. These values, obtained from experiments with good loading at PND 12-23, obviously depend crucially on many factors that affect loading, such as age, incubation time and health of the slices. Changes in fluorescence in multiple cells were analyzed with a program written in IPLab. The fluorescence change over time is defined as ΔF/F=(F0−F1)/(F0) and, for the analysis of the AM loaded cells fluorescence change was defined as ΔF/F=((F0−-B0)−(F1−B1))/(F0−B0), expressed in %, where F1 and B are fluorescence in the somata and background fluorescence, respectively, at any given timepoint, and F0 and B0 are fluorescence and background at the beginning of the experiment.
# To maximize the effect of the stimulation of the trigger cell, different methods of enhancing synaptic release and also of making postsynaptic cells more excitable have been experimented with. Currently used is 3 mM [Ca^2+]e in our ACSF (artificial cerebrospinal fluid) because high [Ca^2+]e decreases synaptic failures and, by increasing the [Ca^2+] gradient between the inside and outside of the cell, it also produces bigger action-potential induced calcium signals. […]
Structure (SMILES),effect on number of possible postsynaptic targets (follower cells),epileptiform events in imaged neurons
CC[N+](CC)(CC)CC [TEA],increases the number of possible postsynaptic targets,produces spontaneous or evoked epileptiform events
CN1CCc2cc3c(cc2[C@H]1[C@@H]1OC(=O)c2c1ccc1c2OCO1)OCO3 [Bicuculine],increases the number of possible postsynaptic targets,produces spontaneous or evoked epileptiform events
Nc1ccncc1 [4-AP],increases the number of possible postsynaptic targets,produces spontaneous or evoked epileptiform events

# — patent US6662039B2, “Optical probing of neuronal connections with fluorescent indicators” (The Trustees of Columbia University in the City of New York, priority 1999, dated 2003)
